# Structures can show the parent of a compound that is named as a salt.
# Experiments:
# [1] = Relative solubility by the 1-octanol and water partition method (UV absorption at 228 nm), taxol = 1
# Description: In separate experiments, taxol derivative 4 and 2'-succinyl taxol (R=NaO2 CCH2 CH2 CO2) were dissolved in a mildly basic aqueous solution.
# *Solubilities were determined by using the 1octanol and water partition
# method.Sample concentrations in water were determined by UV absorptions a […]
# [2] = Stability in pH 5 buffer / mildly acidic aqueous solution (HPLC or TLC, onset of cloudiness); assay type: physicochemical; conditions: room temperature
# Description: **Stabilities were determined in pH 5 buffer solution by one of the two
# methods indicated below.
# (a) 9.5 mg of sample was dissolved in 0.2 ml of EtOH and 0.2 ml of pH 5
# buffer solution and let stand at room temperature. The progress of
# decomposition was checked by HPLC or TLC and observation of the onset of
# (b) 0.5 mg of sample was dissolved in 0.1 ml of EtOH and 0.9 ml of pH 5
# buffer solution, the other conditions were the same as in (a) above. All
# samples were stable under these conditions for at least 24 hours. No
# hydrolysis was detectable by HPLC or TLC during this time period.
# [3] = Stability in mildly basic aqueous solution; assay type: physicochemical
# M109 lung carcinoma = assay: In vivo activity against M109 lung carcinoma implanted intraperitoneally (mice M109 model), median survival; design: species or system Balb/o x DBA/2 F1 hybrid mice
# Description: Balb/o x DBA/2 F1 hybrid mice were implanted intraperitoneally, as described by William Rose in "Evaluation of Madison 109 Lung Carcinoma as a Model for Screening Antitumor Drugs, "Cancer Treatment Reports, 65 No. 3-4 (1981), with 0.5 mL of a 2% (w/v) brei of M109 lung carcinoma (the mice M109 model).
# Mice were treated with a compound under study by receiving intraperitoneal injections of various doses on either Day 1, 5, and 9 post-tumor implant or Days 5 and 8 post-implant. Mice were followed daily for survival until approximately 75-90 days post-tumor implant. One group of mice per experiment remained untreated and served as the control group.
# Median survival times of compound-treated (T) mice were compared to the median survival time of the control (C) mice. The ratio of the two values for each compound-treated group of mice was multiplied by 100 and expressed as a percentage (i.e.% T/C) in Table 2 for certain representative compounds.
# [4] = cited from earlier work
# [5] = cited from earlier work; remark: listed apart in the source
# tubulin = conditions: cited from earlier work
# B16 melanoma cells = conditions: compared with taxol; cited from earlier work
# [6] = cited from earlier work; remark: listed apart in the source
# [7] = Deutsch et al.; cited from earlier work
# [8] = method (a): 9.5 mg in 0.2 ml EtOH and 0.2 ml pH 5 buffer
# [9] = method (b): 0.5 mg in 0.1 ml EtOH and 0.9 ml pH 5 buffer
compound,measurement,setting,value
"CC(=O)O[C@H]1C(=O)[C@@]2(C)[C@H]([C@H](OC(=O)c3ccccc3)[C@]3(O)C[C@H](OC(=O)[C@H](OC(=O)c4ccccc4C(=O)O)[C@@H](NC(=O)c4ccccc4)c4ccccc4)C(C)=C1C3(C)C)[C@]1(OC(C)=O)CO[C@@H]1C[C@@H]2O [Compound 4, Taxol 2'-(sodium 1,2-benzenedicarboxylate)]",Relative Solubility (p'),[1],3
same,Stabilities at pH 5,[2]; [8],> 24 h
same,appearance of solution,[3],remained clear
same,extent of decomposition,[3],remained substantially intact
same,T/C,"M109 lung carcinoma; Q03Dx2;5, ip/ip, dose 15",106%
same,T/C,"M109 lung carcinoma; Q03Dx2;5, ip/ip, dose 30",135%
same,T/C,"M109 lung carcinoma; Q03Dx2;5, ip/ip, dose 60",141%
"CCN(CC)CCNC(=O)c1ccc(C(=O)O[C@@H](C(=O)O[C@H]2C[C@@]3(O)[C@@H](OC(=O)c4ccccc4)[C@@H]4[C@]5(OC(C)=O)CO[C@@H]5C[C@H](O)[C@@]4(C)C(=O)[C@H](OC(C)=O)C(=C2C)C3(C)C)[C@@H](NC(=O)c2ccccc2)c2ccccc2)cc1 [Compound 13b, 2'-[4-([2-(N,N-diethylamino)ethyl]aminocarbonyl)benzoyl]taxol, hydrochloride]",Stabilities at pH 5,[2]; [8],> 24 h
same,T/C,"M109 lung carcinoma; Z03Dx2;5, ip/ip, dose 50",118%
same,T/C,"M109 lung carcinoma; Z03Dx2;5, ip/ip, dose 100",118%
same,T/C,"M109 lung carcinoma; Z03Dx2;5, ip/ip, dose 200",124%
"CC(=O)O[C@H]1C(=O)[C@@]2(C)[C@H]([C@H](OC(=O)c3ccccc3)[C@]3(O)C[C@H](OC(=O)[C@H](OC(=O)CCC(=O)NCCS(=O)(=O)O)[C@@H](NC(=O)c4ccccc4)c4ccccc4)C(C)=C1C3(C)C)[C@]1(OC(C)=O)CO[C@@H]1C[C@@H]2O [--O2 CCH2 CH2 CONHCH2 --CH2 SO3 Na, 2'-([4-((2-sulfoethyl)amino)-1,4-dioxobutyl]oxy)taxol sodium salt]",Stabilities at pH 5,[2]; [9],> 24 h
same,antineoplastic activity in mice,[4],active as antineoplastic agents in mice
same,aqueous solubility,[5],improved water-solubility as compared with taxol
"CC(=O)O[C@H]1C(=O)[C@@]2(C)[C@H]([C@H](OC(=O)c3ccccc3)[C@]3(O)C[C@H](OC(=O)[C@H](OC(=O)c4ccc(C(=O)O)cc4)[C@@H](NC(=O)c4ccccc4)c4ccccc4)C(C)=C1C3(C)C)[C@]1(OC(C)=O)CO[C@@H]1C[C@@H]2O [Compound 7, Taxol 2'-(sodium 1,4-benzenedioarboxylate)]",solubility relative to ortho benzoyl carboxylate derivative 4,[1]; compared with 4,twice as soluble
same,Stabilities at pH 5,[2]; [8],> 24 h
same,T/C,"M109 lung carcinoma; Q03Dx2;5, ip/ip, dose 15",112%
same,T/C,"M109 lung carcinoma; Q03Dx2;5, ip/ip, dose 30",141%
same,T/C,"M109 lung carcinoma; Q03Dx2;5, ip/ip, dose 60",141%
same,in vivo biological activity relative to derivative 4,M109 lung carcinoma; mice M109 model,superior in vivo biological activity
"CC(=O)O[C@H]1C(=O)[C@@]2(C)[C@H]([C@H](OC(=O)c3ccccc3)[C@]3(O)C[C@H](OC(=O)[C@H](OC(=O)CCS(=O)(=O)O)[C@@H](NC(=O)c4ccccc4)c4ccccc4)C(C)=C1C3(C)C)[C@]1(OC(C)=O)CO[C@@H]1C[C@@H]2O [--O2 CCH2 CH2 SO3 Na, 2'-[(3-sulfo-1-oxopropyl)oxy]taxol sodium salt]",Stabilities at pH 5,[2]; [9],> 24 h
same,antineoplastic activity in mice,[4],active as antineoplastic agents in mice
same,aqueous solubility,[5],improved water-solubility as compared with taxol
CC[C@]1(O)C[C@@H]2CN(CCc3c([nH]c4ccccc34)[C@@](C(=O)OC)(c3cc4c(cc3OC)N(C)[C@H]3[C@@](O)(C(=O)OC)[C@H](OC(C)=O)[C@]5(CC)C=CCN6CC[C@]43[C@@H]65)C2)C1 [vinblastine],effect on microtubule / tubulin polymer formation,tubulin,prevent microtubule formation
2'-(4-benzyloxocarbonylbensoyl -7-(4-carboxybensoyl)taxol [Compound 17],T/C,"M109 lung carcinoma; Q03Dx2;5, ip/ip, dose 13",97%
same,T/C,"M109 lung carcinoma; Q03Dx2;5, ip/ip, dose 26",100%
same,T/C,"M109 lung carcinoma; Q03Dx2;5, ip/ip, dose 52",109%
"CC(=O)O[C@H]1C(=O)[C@@]2(C)[C@H]([C@H](OC(=O)c3ccccc3)[C@]3(O)C[C@H](OC(=O)[C@H](OC(=O)CN(C)C)[C@@H](NC(=O)c4ccccc4)c4ccccc4)C(C)=C1C3(C)C)[C@]1(OC(C)=O)CO[C@@H]1C[C@@H]2O [2'-(N,N-dimethylglycyl) taxol]",inhibition of proliferation of B16 melanoma cells relative to taxol,B16 melanoma cells,to an extent similar to that of taxol
"CC(=O)O[C@H]1C(=O)[C@@]2(C)[C@H]([C@H](OC(=O)c3ccccc3)[C@]3(O)C[C@H](OC(=O)[C@H](OC(=O)c4ccc(S(=O)(=O)O)cc4)[C@@H](NC(=O)c4ccccc4)c4ccccc4)C(C)=C1C3(C)C)[C@]1(OC(C)=O)CO[C@@H]1C[C@@H]2O [Compound 12, 2'-(4-sulfobenzoyl) taxol, sodium salt]",Relative Solubility (p'),[1],166
same,Stabilities at pH 5,[2]; [9],> 24 h
"CC(=O)O[C@H]1C(=O)[C@@]2(C)[C@H]([C@H](OC(=O)c3ccccc3)[C@]3(O)C[C@H](OC(=O)[C@H](OC(=O)c4ccccc4S(=O)(=O)O)[C@@H](NC(=O)c4ccccc4)c4ccccc4)C(C)=C1C3(C)C)[C@]1(OC(C)=O)CO[C@@H]1C[C@@H]2O [Compound 11, 2'-(2-Sulfobenzoyl) taxol, sodium salt]",Relative Solubility (p'),[1],96
same,Stabilities at pH 5,[2]; [9],> 24 h
"CC(=O)O[C@H]1C(=O)[C@@]2(C)[C@H]([C@H](OC(=O)c3ccccc3)[C@]3(O)C[C@H](OC(=O)[C@H](OC(=O)c4cc(C(=O)O)cc(C(=O)O)c4)[C@@H](NC(=O)c4ccccc4)c4ccccc4)C(C)=C1C3(C)C)[C@]1(OC(C)=O)CO[C@@H]1C[C@@H]2O [Compound 8c, Taxol 2'-(disodium 1,3,5-benzenetricarboxylate)]",Stabilities at pH 5,[2]; [9],> 24 h
"CC(=O)O[C@H]1C(=O)[C@]2(C)[C@@H](OC(C)=O)C[C@H]3OC[C@@]3(OC(C)=O)[C@H]2[C@H](OC(=O)c2ccccc2)[C@]2(O)C[C@H](OC(=O)[C@H](OC(C)=O)[C@@H](NC(=O)c3ccccc3)c3ccccc3)C(C)=C1C2(C)C [2',7-diacetyltaxol]",hydrolysis of acyl substituents under in vivo conditions,[6],readily hydrolyzed
"CC(=O)O[C@H]1C(=O)[C@@]2(C)[C@H]([C@H](OC(=O)c3ccccc3)[C@]3(O)C[C@H](OC(=O)[C@H](OC(=O)CCC(=O)O)[C@@H](NC(=O)c4ccccc4)c4ccccc4)C(C)=C1C3(C)C)[C@]1(OC(C)=O)CO[C@@H]1C[C@@H]2O [2'-succinyl taxol, 2'-succinyl taxol (R=NaO2 CCH2 CH2 CO2), reference compound]",time until solution turned cloudy,[3],less than 24 hours
same,degraded at 24 h,[3]; read-out: decomposed,~50%
"CC(=O)O[C@H]1C(=O)[C@]2(C)[C@@H](OC(=O)c3ccccc3C(=O)O)C[C@H]3OC[C@@]3(OC(C)=O)[C@H]2[C@H](OC(=O)c2ccccc2)[C@]2(O)C[C@H](OC(=O)[C@H](OC(=O)c3ccccc3C(=O)O)[C@@H](NC(=O)c3ccccc3)c3ccccc3)C(C)=C1C2(C)C [Compound 15, Taxol 2',7-di(sodium 1,2-benzenedicarboxylate)]",T/C,"M109 lung carcinoma; Z03Dx2;5, site/route not given, dose 15",100%
same,T/C,"M109 lung carcinoma; Z03Dx2;5, site/route not given, dose 30",103%
same,T/C,"M109 lung carcinoma; Z03Dx2;5, site/route not given, dose 60",106%
"CC(=O)O[C@H]1C(=O)[C@@]2(C)[C@H]([C@H](OC(=O)c3ccccc3)[C@]3(O)C[C@H](OC(=O)[C@H](OC(=O)CCN(C)C)[C@@H](NC(=O)c4ccccc4)c4ccccc4)C(C)=C1C3(C)C)[C@]1(OC(C)=O)CO[C@@H]1C[C@@H]2O [2'-[3-(N,N-dimethylamino)propionyl]taxol]",inhibition of proliferation of B16 melanoma cells relative to taxol,B16 melanoma cells,to an extent similar to that of taxol
CC(=O)O[C@H]1C(=O)[C@@]2(C)[C@H]([C@H](OC(=O)c3ccccc3)[C@]3(O)C[C@H](OC(=O)[C@H](OC(=O)CCCC(=O)NCCCN(C)C)[C@@H](NC(=O)c4ccccc4)c4ccccc4)C(C)=C1C3(C)C)[C@]1(OC(C)=O)CO[C@@H]1C[C@@H]2O,antitumor activity,[7],good solubility and bioactivity
CC(=O)O[C@H]1C(=O)[C@@]2(C)[C@H]([C@H](OC(=O)c3ccccc3)[C@]3(O)C[C@H](OC(=O)[C@H](OC(C)=O)[C@@H](NC(=O)c4ccccc4)c4ccccc4)C(C)=C1C3(C)C)[C@]1(OC(C)=O)CO[C@@H]1C[C@@H]2O [2'-acetyltaxol],hydrolysis of acyl substituents under in vivo conditions,[6],readily hydrolyzed
"CC(=O)O[C@H]1C(=O)[C@@]2(C)[C@H]([C@H](OC(=O)c3ccccc3)[C@]3(O)C[C@H](OC(=O)[C@H](OC(=O)CCC(=O)NCCCS(=O)(=O)O)[C@@H](NC(=O)c4ccccc4)c4ccccc4)C(C)=C1C3(C)C)[C@]1(OC(C)=O)CO[C@@H]1C[C@@H]2O [2'-([4-((3-sulfopropyl)amino-1,4-dioxobutyl]oxy)taxolsodium salt]",antineoplastic activity in mice,[4],active as antineoplastic agents in mice
same,aqueous solubility,[5],improved water-solubility as compared with taxol
